How the values were obtained:
[1] = target: Fibroblast growth factor receptor 1 (Homo sapiens) (UniProt P11362); test: Percent inhibition against FGFR1 at 10 uM by HTRF method; parameters: scale not given: the % may be the effect or the level left
[2] = target: Bcr/Abl fusion protein (Homo sapiens) (UniProt P00519+P11274); test: Inhibition of bcr-Abl at 10 uM by HTRF method; type: protein assay; parameters: scale not given: the % may be the effect or the level left
[3] = target: Insulin-like growth factor 1 receptor (Homo sapiens) (UniProt P08069); test: […] against IGF1R at 10 uM by HTRF method
Chain of Insulin-like growth factor 1 receptor (Homo sapiens) (P08069 31-736 limits assumed): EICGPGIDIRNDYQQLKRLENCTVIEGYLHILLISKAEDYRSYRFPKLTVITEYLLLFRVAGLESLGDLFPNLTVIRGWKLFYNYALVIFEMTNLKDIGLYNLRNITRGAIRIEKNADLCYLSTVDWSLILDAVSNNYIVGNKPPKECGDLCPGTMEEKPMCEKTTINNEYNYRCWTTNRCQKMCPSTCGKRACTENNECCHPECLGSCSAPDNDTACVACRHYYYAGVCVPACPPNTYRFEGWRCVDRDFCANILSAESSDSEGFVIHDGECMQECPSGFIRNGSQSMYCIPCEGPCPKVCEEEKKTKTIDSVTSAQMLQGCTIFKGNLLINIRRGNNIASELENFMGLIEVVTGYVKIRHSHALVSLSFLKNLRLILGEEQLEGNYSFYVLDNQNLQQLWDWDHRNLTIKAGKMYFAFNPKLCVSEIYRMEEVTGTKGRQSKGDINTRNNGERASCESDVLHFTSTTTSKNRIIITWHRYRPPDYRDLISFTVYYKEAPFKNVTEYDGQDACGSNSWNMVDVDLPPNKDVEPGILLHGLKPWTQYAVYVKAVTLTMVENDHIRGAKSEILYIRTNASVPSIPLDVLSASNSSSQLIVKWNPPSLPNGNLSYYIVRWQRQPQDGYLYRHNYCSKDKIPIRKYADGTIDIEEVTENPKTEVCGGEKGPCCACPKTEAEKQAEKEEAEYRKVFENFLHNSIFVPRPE
Chain of Insulin-like growth factor 1 receptor (Homo sapiens) (P08069 741-1367 limits assumed): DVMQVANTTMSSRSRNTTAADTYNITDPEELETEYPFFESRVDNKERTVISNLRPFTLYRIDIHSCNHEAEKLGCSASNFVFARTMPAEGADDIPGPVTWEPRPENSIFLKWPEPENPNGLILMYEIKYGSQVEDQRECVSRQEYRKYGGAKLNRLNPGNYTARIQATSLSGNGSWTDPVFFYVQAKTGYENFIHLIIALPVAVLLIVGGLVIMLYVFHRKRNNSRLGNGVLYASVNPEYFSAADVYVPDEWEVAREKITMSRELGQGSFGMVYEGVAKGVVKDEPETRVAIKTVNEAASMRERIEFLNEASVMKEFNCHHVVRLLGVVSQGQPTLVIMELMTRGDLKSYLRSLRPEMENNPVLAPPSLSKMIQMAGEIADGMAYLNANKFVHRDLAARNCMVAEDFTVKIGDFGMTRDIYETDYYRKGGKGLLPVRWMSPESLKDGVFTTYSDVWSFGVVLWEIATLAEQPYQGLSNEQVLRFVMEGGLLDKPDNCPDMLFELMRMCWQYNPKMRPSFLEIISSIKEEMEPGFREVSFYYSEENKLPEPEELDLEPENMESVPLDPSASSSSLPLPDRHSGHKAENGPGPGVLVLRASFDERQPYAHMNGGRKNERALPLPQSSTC

[4] = target: Receptor-type tyrosine-protein kinase FLT3 (Homo sapiens) (UniProt P36888); test: Inhibition of Flt3 at 10 uM by HTRF method; parameters: scale not given: the % may be the effect or the level left
Chain of Receptor-type tyrosine-protein kinase FLT3 (Homo sapiens) (P36888 whole entry): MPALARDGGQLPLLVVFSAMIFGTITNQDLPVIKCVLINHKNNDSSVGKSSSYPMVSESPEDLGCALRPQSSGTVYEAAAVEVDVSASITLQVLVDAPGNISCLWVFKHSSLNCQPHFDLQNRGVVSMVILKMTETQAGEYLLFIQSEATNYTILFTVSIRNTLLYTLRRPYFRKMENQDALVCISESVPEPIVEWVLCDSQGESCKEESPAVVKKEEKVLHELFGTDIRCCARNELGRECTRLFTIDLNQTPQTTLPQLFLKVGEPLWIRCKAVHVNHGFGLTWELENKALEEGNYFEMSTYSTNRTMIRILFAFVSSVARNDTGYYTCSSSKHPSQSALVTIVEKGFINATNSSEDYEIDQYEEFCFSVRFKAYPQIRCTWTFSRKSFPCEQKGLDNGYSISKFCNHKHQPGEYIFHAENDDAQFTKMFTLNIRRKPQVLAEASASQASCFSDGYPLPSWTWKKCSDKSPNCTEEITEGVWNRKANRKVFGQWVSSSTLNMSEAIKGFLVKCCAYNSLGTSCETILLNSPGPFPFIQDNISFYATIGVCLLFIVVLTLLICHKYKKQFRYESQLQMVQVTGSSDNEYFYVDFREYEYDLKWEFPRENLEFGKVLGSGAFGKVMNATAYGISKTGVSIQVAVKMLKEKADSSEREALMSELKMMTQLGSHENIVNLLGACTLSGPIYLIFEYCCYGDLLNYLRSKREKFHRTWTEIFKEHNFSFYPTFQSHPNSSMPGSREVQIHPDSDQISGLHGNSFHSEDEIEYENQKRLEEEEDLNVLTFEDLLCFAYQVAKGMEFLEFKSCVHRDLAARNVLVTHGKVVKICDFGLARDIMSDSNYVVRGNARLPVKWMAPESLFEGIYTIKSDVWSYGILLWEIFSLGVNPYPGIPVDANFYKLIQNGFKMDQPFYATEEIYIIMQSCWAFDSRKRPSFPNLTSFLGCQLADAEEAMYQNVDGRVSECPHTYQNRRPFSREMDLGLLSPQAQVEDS

[5] = target: RAC-alpha serine/threonine-protein kinase (Homo sapiens) (UniProt P31749); test: […] against PKB/Akt at 10 uM by HTRF method
[6] = target: T1, Vascular endothelial growth factor receptor 2 (Homo sapiens, UniProt P35968); test: Inhibition of VEGFR2 by enzymatic assay
[7] = target: Vascular endothelial growth factor receptor 1 (Homo sapiens, UniProt P17948); test: Inhibition of VEGFR1 by enzymatic assay
Chain of Vascular endothelial growth factor receptor 1 (P17948 whole entry): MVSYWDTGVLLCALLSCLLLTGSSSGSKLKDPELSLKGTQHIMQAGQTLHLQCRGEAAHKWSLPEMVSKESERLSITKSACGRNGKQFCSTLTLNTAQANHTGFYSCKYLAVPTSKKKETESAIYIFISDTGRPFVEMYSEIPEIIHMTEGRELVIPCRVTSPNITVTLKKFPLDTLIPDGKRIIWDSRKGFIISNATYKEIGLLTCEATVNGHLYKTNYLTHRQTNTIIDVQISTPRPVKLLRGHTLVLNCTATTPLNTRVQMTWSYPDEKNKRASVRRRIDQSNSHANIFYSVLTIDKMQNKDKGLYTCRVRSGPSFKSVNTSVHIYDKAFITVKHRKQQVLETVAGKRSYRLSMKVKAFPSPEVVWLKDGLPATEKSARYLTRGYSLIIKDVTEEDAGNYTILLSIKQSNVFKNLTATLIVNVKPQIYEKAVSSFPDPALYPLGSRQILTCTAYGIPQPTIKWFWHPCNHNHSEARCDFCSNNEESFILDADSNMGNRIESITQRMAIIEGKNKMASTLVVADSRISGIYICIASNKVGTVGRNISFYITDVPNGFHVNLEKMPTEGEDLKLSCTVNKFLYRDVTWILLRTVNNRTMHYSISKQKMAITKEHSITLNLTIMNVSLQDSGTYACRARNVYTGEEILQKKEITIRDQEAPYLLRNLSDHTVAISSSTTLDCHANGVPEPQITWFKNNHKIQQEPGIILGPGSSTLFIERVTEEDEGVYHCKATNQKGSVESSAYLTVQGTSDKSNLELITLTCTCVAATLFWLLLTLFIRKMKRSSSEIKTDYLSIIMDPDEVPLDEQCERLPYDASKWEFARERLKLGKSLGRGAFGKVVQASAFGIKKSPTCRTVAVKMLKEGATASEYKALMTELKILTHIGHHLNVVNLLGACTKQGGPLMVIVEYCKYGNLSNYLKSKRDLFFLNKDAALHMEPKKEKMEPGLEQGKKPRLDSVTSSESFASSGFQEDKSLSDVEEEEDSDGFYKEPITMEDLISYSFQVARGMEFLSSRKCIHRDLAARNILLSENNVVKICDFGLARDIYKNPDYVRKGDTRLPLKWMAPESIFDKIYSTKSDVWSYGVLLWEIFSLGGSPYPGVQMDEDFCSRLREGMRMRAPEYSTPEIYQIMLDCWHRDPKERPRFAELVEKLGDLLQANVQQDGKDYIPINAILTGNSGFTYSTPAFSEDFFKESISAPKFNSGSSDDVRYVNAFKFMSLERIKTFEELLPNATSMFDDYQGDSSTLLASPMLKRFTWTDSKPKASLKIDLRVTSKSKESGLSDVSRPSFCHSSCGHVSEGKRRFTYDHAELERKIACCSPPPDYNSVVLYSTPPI

[8] = target: T2, Ephrin type-B receptor 4 (Homo sapiens) (UniProt P54760); test: Percent inhibition against EphB4 at 10 uM by HTRF method; parameters: scale not given: the % may be the effect or the level left
T2 sequence (whole entry): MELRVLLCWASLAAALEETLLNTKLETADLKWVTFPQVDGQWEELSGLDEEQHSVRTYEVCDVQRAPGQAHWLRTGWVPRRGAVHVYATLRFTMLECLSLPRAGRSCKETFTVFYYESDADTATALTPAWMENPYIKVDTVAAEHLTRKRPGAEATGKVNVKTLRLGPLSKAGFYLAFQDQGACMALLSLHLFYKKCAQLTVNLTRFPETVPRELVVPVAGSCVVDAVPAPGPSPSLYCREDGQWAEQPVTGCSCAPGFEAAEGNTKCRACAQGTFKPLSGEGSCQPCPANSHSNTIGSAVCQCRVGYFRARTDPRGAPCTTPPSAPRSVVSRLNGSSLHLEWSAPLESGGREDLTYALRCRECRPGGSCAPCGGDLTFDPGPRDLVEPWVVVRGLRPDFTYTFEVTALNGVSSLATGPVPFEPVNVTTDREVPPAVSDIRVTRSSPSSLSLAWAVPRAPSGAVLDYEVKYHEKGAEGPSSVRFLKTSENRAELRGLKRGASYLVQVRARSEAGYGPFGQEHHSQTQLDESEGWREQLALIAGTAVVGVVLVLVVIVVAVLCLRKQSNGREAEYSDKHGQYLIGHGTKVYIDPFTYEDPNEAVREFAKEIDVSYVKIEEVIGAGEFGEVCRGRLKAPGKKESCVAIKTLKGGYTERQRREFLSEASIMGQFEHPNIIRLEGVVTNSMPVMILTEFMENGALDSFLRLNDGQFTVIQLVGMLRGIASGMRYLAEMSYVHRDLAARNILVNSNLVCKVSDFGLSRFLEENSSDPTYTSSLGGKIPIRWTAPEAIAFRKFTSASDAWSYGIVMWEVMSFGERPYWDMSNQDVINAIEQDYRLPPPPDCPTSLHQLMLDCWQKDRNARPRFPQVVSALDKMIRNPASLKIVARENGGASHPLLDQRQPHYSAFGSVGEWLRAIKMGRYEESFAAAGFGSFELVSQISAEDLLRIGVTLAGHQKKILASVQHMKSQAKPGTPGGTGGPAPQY

[9] = target: Cyclin-dependent kinase 5 (Homo sapiens) (UniProt Q00535); test: […] against Cdk5 at 10 uM by HTRF method
Chain of Cyclin-dependent kinase 5 (Homo sapiens) (Q00535 whole entry, looked up): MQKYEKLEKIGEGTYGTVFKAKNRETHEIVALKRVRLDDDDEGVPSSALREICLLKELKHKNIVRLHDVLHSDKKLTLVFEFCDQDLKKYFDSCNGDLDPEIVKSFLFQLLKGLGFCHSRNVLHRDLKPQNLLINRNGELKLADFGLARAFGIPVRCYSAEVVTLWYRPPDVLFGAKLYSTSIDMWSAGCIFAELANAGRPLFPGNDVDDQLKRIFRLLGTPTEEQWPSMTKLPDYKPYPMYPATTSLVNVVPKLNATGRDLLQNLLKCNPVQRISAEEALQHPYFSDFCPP

[10] = target: Cyclin-dependent kinase 2 (Homo sapiens) (UniProt P24941); test: […] against Cdk2 at 10 uM by HTRF method
[11] = target: Epidermal growth factor receptor (Homo sapiens) (UniProt P00533); test: […] against ErbB1 at 10 uM by HTRF method
[12] = target: Receptor tyrosine-protein kinase erbB-2 (Homo sapiens) (UniProt P04626); test: […] against ErbB2 at 10 uM by HTRF method
[13] = target: Hepatocyte growth factor receptor (Homo sapiens) (UniProt P08581); test: Percent inhibition against c-Met at 10 uM by HTRF method; parameters: scale not given: the % may be the effect or the level left
[14] = target: T1, Vascular endothelial growth factor receptor 2; test: Inhibition of VEGFR2 in 293 adenovirus transfected kidney cells by cell-based ELISA assay
[15] = target: cAMP-dependent protein kinase (PKA) (Homo sapiens) (UniProt P22694+P17612+P22612); test: Inhibition against PKA at 10 uM by HTRF method; type: protein assay; parameters: scale not given: the % may be the effect or the level left
[16] = target: Glycogen synthase kinase-3 beta (Homo sapiens) (UniProt P49841); test: Inhibition against GSK3-beta at 10 uM by HTRF method; parameters: scale not given: the % may be the effect or the level left

Chain of Fibroblast growth factor receptor 1 (Homo sapiens) (P11362 22-822 limits assumed): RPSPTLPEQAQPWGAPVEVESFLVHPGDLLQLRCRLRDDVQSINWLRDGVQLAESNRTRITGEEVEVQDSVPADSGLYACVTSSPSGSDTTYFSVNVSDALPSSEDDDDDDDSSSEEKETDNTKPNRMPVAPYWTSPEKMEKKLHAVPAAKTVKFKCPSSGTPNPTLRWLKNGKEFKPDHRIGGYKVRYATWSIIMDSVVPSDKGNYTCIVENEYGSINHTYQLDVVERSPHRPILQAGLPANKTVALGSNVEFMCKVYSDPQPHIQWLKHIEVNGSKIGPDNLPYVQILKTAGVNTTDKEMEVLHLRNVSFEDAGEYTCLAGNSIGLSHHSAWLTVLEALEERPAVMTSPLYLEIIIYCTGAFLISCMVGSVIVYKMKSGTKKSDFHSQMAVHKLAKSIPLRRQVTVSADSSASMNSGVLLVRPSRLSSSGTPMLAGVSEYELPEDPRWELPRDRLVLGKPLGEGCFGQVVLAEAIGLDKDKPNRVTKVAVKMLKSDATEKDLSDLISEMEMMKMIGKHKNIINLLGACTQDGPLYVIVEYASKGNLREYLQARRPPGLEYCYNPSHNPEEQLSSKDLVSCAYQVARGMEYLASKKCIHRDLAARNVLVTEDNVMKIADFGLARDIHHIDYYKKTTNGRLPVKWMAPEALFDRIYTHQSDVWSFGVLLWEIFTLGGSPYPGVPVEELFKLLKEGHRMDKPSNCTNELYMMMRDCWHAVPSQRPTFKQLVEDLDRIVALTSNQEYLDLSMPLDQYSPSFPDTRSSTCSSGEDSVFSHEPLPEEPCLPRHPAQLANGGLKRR

Row | Structure (SMILES) | Activity [1] | Activity [2] | Activity [3] | Activity [4] | Activity [5] | IC50 [6] | IC50 [7] | Activity [8] | Activity [9] | Percent inhibition [10] | Percent inhibition [11] | Activity [12] | Activity [13] | IC50 [14] | Activity [15] | Activity [16]
1 | Cn1cnc(NCc2ccncc2)c1-c1nnc(Nc2ccc(C(C)(C)C)cc2)o1 | < 30% | < 30% | < 30% | < 30% | < 30% | 380 nM | 890 nM | < 30% | < 30% | < 30% | < 30% | < 30% | < 30% | 1050 nM | < 30% | < 30%
2 | Cn1cnc(NCc2ccncc2)c1-c1nnc(Nc2ccc(Br)cc2)o1 | < 30% | < 30% | < 30% | < 30% | < 30% | 730 nM | 1470 nM | < 30% | < 30% | < 30% | < 30% | < 30% | < 30% |  | < 30% | < 30%
3 | Cc1ccccc1Nc1nnc(-c2c(NCc3ccncc3)ncn2C)o1 | < 30% | < 30% | < 30% | < 30% | < 30% | > 10000 nM | > 10000 nM | < 30% | < 30% | < 30% | < 30% | < 30% | < 30% |  | < 30% | < 30%
4 | Cn1cnc(NCc2ccncc2)c1-c1nnc(Nc2ccc(-c3ccccc3)cc2)o1 | < 30% | < 30% | < 30% | < 30% | < 30% | 3220 nM | > 10000 nM | < 30% | < 30% | < 30% | < 30% | < 30% | < 30% |  | < 30% | < 30%
5 | COc1ccccc1Nc1nnc(-c2c(NCc3ccncc3)ncn2C)o1 | < 30% | < 30% | < 30% | < 30% | < 30% |  |  | < 30% | < 30% | < 30% | < 30% | < 30% | < 30% |  | < 30% | < 30%
6 | Cn1cnc(NCc2ccncc2)c1-c1nnc(Nc2ccc(Oc3ccccc3)cc2)o1 | < 30% | < 30% | < 30% | < 30% | < 30% | > 10000 nM | > 10000 nM | < 30% | < 30% | < 30% | < 30% | < 30% | < 30% |  | < 30% | < 30%
7 | Cn1cnc(NCc2ccncc2)c1-c1nnc(Nc2ccc(Cc3ccccc3)cc2)o1 | < 30% | < 30% | < 30% | < 30% | < 30% | > 10000 nM | > 10000 nM | < 30% | < 30% | < 30% | < 30% | < 30% | < 30% |  | < 30% | < 30%
8 | Cc1cccc(Nc2nnc(-c3c(NCc4ccncc4)ncn3C)o2)c1 | < 30% | < 30% | < 30% | < 30% | < 30% | 710 nM | 1260 nM | < 30% | < 30% | < 30% | < 30% | < 30% | < 30% |  | < 30% | < 30%
